Measured values as given in patent US20030148963A1 (priority 2000, published 2003).
Marks after values point to notes of the source that are not given here.

Key:
[1] = tested on: collagen induced arthritis (CIA); assay: Collagen induced arthritis, histopathological examination of joints; assay type: in vivo, B10.QxDBA/1 female mice
Procedure: Histopathological examination was performed after routine fixation, decalcification, paraffin embedding, and staining with hematoxylin and eosin. All the slides were coded and the joints were studied with regard to synovial hypertrophy (defined as a synovial membrane thickness of more than two cell layers), pannus formation (synovial tissue overlaying the joint cartilage), and cartilage and bone destruction (loss of tissue integrity with resulting ingrowth of fibrotic tissue) (11). The severity of synovial hypertrophy and cartilage/bone destruction was scored from 0 (intact synovial, cartilage/bone tissue) to 3 (intense synovitis with total destruction of cartilage and/or bone).

[2] = tested on: S. aureus LS-1; assay: Determination of bacterial growth in kidneys, blood and joints; assay type: in vivo; conditions: for Bacterial growth in blood / Bacterial growth in kidney: mean ± SEM
Procedure: On days 3 and 6-7 after S. aureus inoculation blood samples were obtained and the kidneys were aseptically removed. Appropriate dilutions were made and 0.1 ml of tissue suspensions and of whole blood was plated on agar plates containing 5% horse blood. Six days after the inoculation bacterial samples from the talocrural and radiocarpal joints were obtained and plated on agar plates, containing 7.5% sodium chloride. After incubation for 48 h at 37° C. the bacterial colonies were counted and tested for catalase and coagulase activity.

[3] = tested on: granulocyte mediated inflammatory response; assay: Olive oil induced inflammation (foot-pad swelling); assay type: in vivo; conditions: non-infected mice, n=6, 24 h after injection; no difference to controls
Procedure: Olive oil induces in vivo a strong granulocyte mediated but T cell independent inflammatory response. Inflammation was induced by injection of 30 μl olive oil (Apoteksbolaget AB, Göteborg, Sweden) intradermally in hind foot-pad. […] Foot-pad swelling was registered 24 h after injection using an Oditest spring caliper. The intensity of the olive oil induced inflammation was expressed (foot-pad thickness^24 h−foot-pad thickness^0 h)×10^−3 cm.

[4] = tested on: TNF; assay: TNF release by IC-21 macrophage cell line; assay type: cell-based, murine
Procedure: Levels of TNF, IL-1b, RANTES, and macrophage inflammatory protein (MIP)-1α were determined using sandwich ELISA from R&D Systems (Minneapolis, Minn.).
These cells display many typical features of the macrophage phenotype and are therefore a suitable model for studying cytoline and chemokine release during inflammation (16). The cells were maintained in continous culture using RPMI-1640 supplemented with 10% FCS, L-glutamine, and gentamycin. When the cells had grown to about 70% confluency, they were seeded into a 24-well-plate (Nunc) at a concentration of 1×10^5 per well and incubated at 37° C. in 5% CO2 for 24 h. […] After 24 h of incubation, the cells were washed once with PBS, and reincubated with medium containing different concentrations (1, 10, 100, 1000 ng/ml) of LPS (Difco) and IFN-γ (10, 50, 100 u/nml). The interferon-γ was purified from the supernatants from Chinese hanater ovary (CHO) cells transfected with the murine IFN-γ gene (hybridoma kindly provided by Dr. Morris, Department of Biological Sciences, University of Warwick, Coventry, UK). After 2 and 24 h of incubation the supernatants were collected and stored at −20° C. until analysis.

[5] = tested on: spleen mononuclear cells; assay type: cell-based; conditions: spleen cells of mice given 12.5 mg/kg 4 days a week for 4 weeks
[6] = tested on: peripheral leukocytes; assay: Hematological analyses in CII immunized mice; assay type: in vivo, B10.QxDBA/1 female mice
Procedure: Mice were bled from the tail into heparinized tubes at different time-points. The leukocytes were counted in a hemacytometer (Toa Medical Electronics, Kobe, Japan). Fifty microliters of the heparinized blood was analyzed in a FACScan cytometer (Becton Dickinson, San Jose, Calif.) to determine the percentages of lymphocytes, granulocytes, and monocytes. The absolute numbers of different leukocyte subsets were then calculated from the total leukocyte counts.

[7] = tested on: spleen mononuclear cells; assay type: cell-based, NMRI mice; conditions: spleen cells from non-infected mice treated once a day for three days vs controls; FIG. 3
[8] = tested on: IL-1α; assay: IL-1 release by IC-21 macrophage cell line; assay type: cell-based, murine
[9] = Etoposide pretreated, n 16, day 61
[10] = Etoposide treated (from day 40), n 17, day 61, mean ± SEM
[11] = Day 3 after 1-2×10^7 CFU S. aureus
[12] = Day 6-7 after 1-2×10^7 CFU S. aureus
[13] = Etoposide-pretreated, Day-2 (prior to experiment, baseline)
[14] = Etoposide-treated (from day 40), Day 61
[15] = Etoposide-treated (from day 40), Day-2 (baseline)

Compound: COc1cc([C@@H]2c3cc4c(cc3[C@@H](O[C@@H]3O[C@@H]5CO[C@@H](C)O[C@H]5[C@H](O)[C@H]3O)[C@H]3COC(=O)[C@H]23)OCO4)cc(OC)c1O [Etoposide]
- Cartilage/bone destruction score [1, 9]: 0
- Synovial hypertrophy score [1, 9]: 0
- Cartilage/bone destruction score [1, 10]: 4.5 ± 2.4
- Synovial hypertrophy score [1, 10]: 2.4 ± 1.1
- Mice with bacteria recovered from joints ([2]; 6 days after inoculation, controls 3 out of 10): 3 out of 8
- Bacterial growth in blood [2, 11]: 60 × 10^7 CFU/ml
- Bacterial growth in kidney [2, 11]: 3 ± 2 × 10^7 CFU
- Bacterial growth in blood [2, 12]: 290 ± 100 × 10^7 CFU/ml
- Bacterial growth in kidney [2, 12]: 67 ± 12 × 10^7 CFU
- Foot-pad swelling, olive oil induced inflammation [3]: 128±131 ×10^−3 cm
- Levels of TNF in supernatants ([4]; etoposide 0.01 μM 24 h, then IFN-γ 10 u/ml 24 h): 52 pg/mL
- Levels of TNF in supernatants ([4]; etoposide 0.01 μM 24 h, then IFN-γ 50 u/ml 24 h): 56 pg/mL
- Levels of TNF in supernatants ([4]; etoposide 0.01 μM 24 h, then IFN-γ 100 u/ml 24 h): 65 pg/mL
- Levels of TNF in supernatants ([4]; etoposide 0.01 μM 24 h, then LPS 0 ng/ml 24 h): 66 pg/mL
- Levels of TNF in supernatants ([4]; etoposide 0.01 μM 24 h, then LPS 1 ng/ml 24 h): 207 pg/mL
- Levels of TNF in supernatants ([4]; etoposide 0.01 μM 24 h, then LPS 10 ng/ml 24 h): 3050 pg/mL
- Levels of TNF in supernatants ([4]; etoposide 0.01 μM 24 h, then LPS 100 ng/ml 24 h): 11900 pg/mL
- Levels of TNF in supernatants ([4]; etoposide 0.01 μM 24 h, then LPS 1000 ng/ml 24 h): 12375 pg/mL
- Levels of TNF in supernatants ([4]; etoposide 0.1 μM 24 h, then IFN-γ 10 u/ml 24 h): 20 pg/mL
- Levels of TNF in supernatants ([4]; etoposide 0.1 μM 24 h, then IFN-γ 50 u/ml 24 h): 32 pg/mL
- Levels of TNF in supernatants ([4]; etoposide 0.1 μM 24 h, then IFN-γ 100 u/ml 24 h): 34 pg/mL
- Levels of TNF in supernatants ([4]; etoposide 0.1 μM 24 h, then LPS 0 ng/ml 24 h): 24 pg/mL
- Levels of TNF in supernatants ([4]; etoposide 0.1 μM 24 h, then LPS 1 ng/ml 24 h): 72 pg/mL
- Levels of TNF in supernatants ([4]; etoposide 0.1 μM 24 h, then LPS 10 ng/ml 24 h): 1125 pg/mL
- Levels of TNF in supernatants ([4]; etoposide 0.1 μM 24 h, then LPS 100 ng/ml 24 h): 2325 pg/mL
- Levels of TNF in supernatants ([4]; etoposide 0.1 μM 24 h, then LPS 1000 ng/ml 24 h): 3650 pg/mL
- Counts per minute (CPM), TSST-1 ([5]; first value of merged cell): 1117 ± 26 CPM
- Counts per minute (CPM), Con A ([5]; mean ± SEM, 4 mice): 2183 ± 214^a) CPM
- Counts per minute (CPM), 0 (unstimulated) ([5]; second value of merged cell): 156 ± 9 CPM
- Granulocytes ([6]; Etoposide-pretreated, Day 61): 698 ± 341^b × 10^4/ml
- Lymphocytes ([6]; Etoposide-pretreated, Day 61): 7.1 ± 3.4 × 10^6/ml
- Monocytes ([6]; Etoposide-pretreated, Day 61): 67 ± 20 × 10^4/ml
- Granulocytes [6, 13]: 71 ± 13 × 10^4/ml
- Lymphocytes [6, 13]: 4.7 ± 0.3 × 10^6/ml
- Monocytes [6, 13]: 18 ± 4 × 10^4/ml
- Granulocytes [6, 14]: 991 ± 326^b × 10^4/ml
- Lymphocytes [6, 14]: 14.3 ± 3.3^b × 10^6/ml
- Monocytes [6, 14]: 92 ± 24^a × 10^4/ml
- Granulocytes [6, 15]: 87 ± 20 × 10^4/ml
- Lymphocytes [6, 15]: 5.9 ± 0.8 × 10^6/ml
- Monocytes [6, 15]: 19 ± 3 × 10^4/ml
- Proliferative response, Con A stimulated [7]: not when stimulated with Con A
- Proliferative response, TSST-1 stimulated [7]: lower proliferative response
- Levels of IL-1α [8]: No major differences
